In US4221781A, “Synergistic penicillin-cephalosporin compositions and methods” (priority 1971, dated 1980):
Like-named read-outs stand apart in the source and are kept apart here. Values belong to the compound of their own block, whether it stands above or below them.

Assays:
[1] = test system: Klebsiella-Enterobacter (strain 4/71); test: Example 10: in vitro M.I.C. of II, cephalosporins and 1:1 combinations; type: cell-based
Experimental: (§1) Tryptose phosphate broth, containing the appropriate concentrations of the compounds or of the combination of them, was inoculated with 0.5×10^4 -5×10^4 organisms of the various microorganisms tested and incubated overnight at 37° C. Minimum inhibitory concentrations (M.I.C.) were taken as the concentrations of the compounds or of the combination at which no visible growth occurred.
(§2) Using the same technique as described in Example 1 the in vitro activity of 6-[(hexahydro-1H-azepin-1-yl)methyleneamino]penicillanic acid (II), of various cephalosporins previously mentioned in this specification, and of 1:1 combinations of II with these cephalosporins was determined against a clinically isolated strain of Klebsiella-Enterobacter (strain 4/71)

[2] = test system: Proteus (Proteus Mirabilis I 190); test: Example 11: in vitro M.I.C. of II, cephalosporins and 1:1 combinations; type: cell-based
Experimental: as §1
as §2, with “cephalosporins” for “cephalosporins previously mentioned in this specification,”, “Proteus (Proteus Mirabilis I 190).” for “Klebsiella-Enterobacter (strain 4/71)”

Klebsiella-Enterobacter [3] = test: Example 4: in vitro M.I.C., serial dilution test, Klebsiella-Enterobacter; type: cell-based
Experimental: as §1

Proteus [4] = test: Example 1: in vitro M.I.C., serial dilution test, Proteus; type: cell-based; conditions: 37° C overnight
Experimental: as §1

Proteus vulgaris = test: Example 1: in vitro M.I.C., serial dilution test, Proteus vulgaris; type: cell-based
Experimental: as §1

Coliform [5] = test: Example 1: in vitro M.I.C., serial dilution test, coliforms; type: cell-based; conditions: 37° C overnight
Experimental: as §1

Proteus [6] = test: Example 9: in vitro MIC, serial dilution test, Proteus; type: cell-based
Experimental: as §1
(§3) Using the technique described in Example 1 the in vitro effect of combinations of 6-(D-α-aminophenylacetamido)-penicillanic acid (I) and 6-[(N,N-diethylformamidino)-N'-amino]penicillanic acid (VII) in the ratios 1:1, 1:2 and 2:1 against clinically isolated strains of Coliforma, Klebsiella-Enterobacter and Proteus was determined in serial dilution tests.

Proteus mirabilis = test: Example 1: in vitro M.I.C., serial dilution test, Proteus mirabilis; type: cell-based; conditions: Proteus mirabilis strain 35895; 37° C overnight
Experimental: as §1

E.coli III [7] = test: Example 6: emergence of resistance, subculturing by serial twofold broth dilution; type: cell-based; conditions: Escherichia coli
Experimental: Subculturing using a serial twofold broth dilution technique was performed with 6-(D-α-amino-phenylacetamido)-penicillanic acid (I), 6-[(piperidyl-1)methyleneamino]penicillanic acid (IV) and a 1:1 combination of I+IV. As inocula were used bacteria from the tube with the highest concentration of compound still permitting visible growth to the naked eye after incubation at 37° C. overnight. The following increases in MIC-values were noted.

E.coli III [8] = test: Example 3: in vivo activity, mean curative dose in mice infected with E.coli III; set-up: species or system female NMRI white mice; conditions: Escherichia coli, sc, 96 h, subcutaneous, read-out: CD50 (mean curative dose)
Experimental: The number of deaths in the various groups were recorded after 96 hours and the mean curative doses (CD50) were calculated. (In the table, LD50 gives the dilution of an overnight culture of the organism causing a 50% death rate in animals receiving no therapy; the number of LD50 -doses records the severity of the infections given to the animals.)

[9] = test system: clinically isolated coliform; test: Example 7: emergence of resistance, subculturing by serial twofold broth dilution; type: cell-based
Experimental: Subculturing using a serial twofold broth dilution technique was performed with 6-(D-α-aminophenylacetamido)-penicillanic acid (I), 6-[(hexahydro-1H-azepin-1-yl)methyleneamino]penicillanic acid (II), and a 1:1 combination of I and II. The strain used was a clinically isolated coliform. As inocula were used bacteria from the tube with the highest concentration of compound still permitting visible growth to the naked eye after incubation at 37° C. overnight. The following increases in MIC values were noted.

Coliforma = test: Example 9: in vitro MIC, serial dilution test, Coliforma; type: cell-based
Experimental: as §1, §3

Proteus [10] = test: Example 4: in vitro M.I.C., serial dilution test, Proteus; type: cell-based
Experimental: as §1

Klebsiella-Enterobacter [11] = test: Example 9: in vitro MIC, serial dilution test, Klebsiella-Enterobacter; type: cell-based
Experimental: as §1, §3

Coliform [12] = test: Example 4: in vitro M.I.C., serial dilution test, coliforms; type: cell-based
Experimental: as §1

[13] = test system: clinically isolated coliform bacterium; test: Example 5: in vitro M.I.C. of IV, various penicillins and 1:1 combinations; type: cell-based
Experimental: as §1
Using the same technique as described in Example 1 the in vitro activity of 6[(piperidyl-1)-methyleneamino]-penicillianic acid (IV), of various penicillins, and of 1:1 combinations of IV with these penicillins, was determined against a clinically isolated coliform bacterium.

[14] = Klebsiella-Enterobacter strain 4/71, read-out: M.I.C.
[15] = Proteus Mirabilis I 190, read-out: M.I.C.
[16] = Klebsiella-Enterobacter strain 2/70, read-out: M.I.C.
[17] = Proteus vulgaris A, 37° C overnight, read-out: M.I.C.
[18] = LD50 1.5·10^-3, 6.6 LD50-doses given
[19] = LD50 8.1·10^-4, 1.2·10^4 LD50-doses given
[20] = Proteus strain 6/70, read-out: M.I.C.
[21] = Klebsiella-Enterobacter strain 8, read-out: MIC

MIC [1, 14]: > 100 µg/mL
MIC [2, 15]: 25 µg/mL
SMILES: CC(=O)OCC1=C(C(=O)O)N2C(=O)C(NC(=O)CSc3ccccc3)C2SC1 (centres unmarked) [EPC 825/1]

SMILES: CC1(C)S[C@@H]2[C@H](NC(=O)[C@H](N)c3ccccc3)C(=O)N2[C@H]1C(=O)O [I, 6-(D-α-aminophenylacetamido)penicillanic acid]
MIC (Klebsiella-Enterobacter [3]; Klebsiella-Enterobacter strain 1/70): 50 µg/mL
MIC (Klebsiella-Enterobacter [3]; [16]): 25 µg/mL
MIC (Klebsiella-Enterobacter [3]; Klebsiella-Enterobacter strain 5/70): 100 µg/mL
MIC (Klebsiella-Enterobacter [3]; Klebsiella-Enterobacter strain 7/70): > 100 µg/mL
MIC (Klebsiella-Enterobacter [3]; Klebsiella-Enterobacter strain 9/70): 50 µg/mL
MIC (Klebsiella-Enterobacter [3]; Klebsiella-Enterobacter strain 10/70): 50 µg/mL
MIC (Klebsiella-Enterobacter [3]; Klebsiella-Enterobacter strain 431): 100 µg/mL
MIC (Proteus [4]; Proteus strain 12/70): 100 µg/mL
MIC (Proteus [4]; Proteus strain 13/70): 100 µg/mL
MIC (Proteus [4]; Proteus strain 20/70): > 100 µg/mL
MIC (Proteus vulgaris): 50 µg/mL
MIC (Proteus vulgaris; [17]): 0.78 µg/mL
MIC (Coliform [5]; Coliform strain 3/70): 1.56 µg/mL
MIC (Coliform [5]; Coliform strain 9/70): 3.12 µg/mL
MIC (Coliform [5]; Coliform strain 10/70): 3.12 µg/mL
MIC (Coliform [5]; Coliform strain 17/70): 3.12 µg/mL
MIC (Proteus [6]): 3.12 µg/mL
MIC (Proteus mirabilis): 25 µg/mL
MIC (E.coli III [7]; passage 0): 1.56 µg/mL
MIC (E.coli III [7]; passage 1): 6.25 µg/mL
MIC (E.coli III [7]; passage 2): 25 µg/mL
MIC (E.coli III [7]; passage 3): 50 µg/mL
MIC (E.coli III [7]; passage 4): 50 µg/mL
MIC (E.coli III [7]; passage 5): 100 µg/mL
MIC (E.coli III [7]; passage 6): 100 µg/mL
ED50 (E.coli III [8]; [18]): 5.5 mg/kg
ED50 (E.coli III [8]; [19]): 250 mg/kg
MIC ([9]; passage 7): 12.5 µg/mL
MIC ([9]; passage 8): 12.5 µg/mL
MIC (Coliforma; Coliforma strain 1): 1.56 µg/mL
MIC (Coliforma; Coliforma strain 4): 3.12 µg/mL
MIC (Coliforma; Coliforma strain 7): 1.56 µg/mL
MIC (Coliforma; Coliforma strain 13): 3.12 µg/mL
MIC (Coliforma; Coliforma strain 16): 3.12 µg/mL
MIC (Proteus [10]; Proteus strain 4/70): 1.56 µg/mL
MIC (Proteus [10]; [20]): 0.39 µg/mL
MIC (Proteus [10]; Proteus strain 7/70): 1.56 µg/mL
MIC (Proteus [10]; Proteus strain 9/70): 6.25 µg/mL
MIC (Proteus [10]; Proteus strain 10/70): 1.56 µg/mL
MIC (Klebsiella-Enterobacter [11]; Klebsiella-Enterobacter strain 1): 50 µg/mL
MIC (Klebsiella-Enterobacter [11]; Klebsiella-Enterobacter strain 5): 100 µg/mL
MIC (Klebsiella-Enterobacter [11]; Klebsiella-Enterobacter strain 7): > 100 µg/mL
MIC (Klebsiella-Enterobacter [11]; [21]): 25 µg/mL

SMILES: CC1(C)S[C@@H]2[C@H](N=CN3CCCCCC3)C(=O)N2[C@H]1C(=O)O [II, 6-[(hexahydro-1H-azepin-1-yl)methyleneamino]penicillanic acid]
MIC (Proteus [4]; Proteus strain 12/70, read-out: M.I.C.): 3.12 µg/mL
MIC (Proteus [4]; Proteus strain 13/70, read-out: M.I.C.): 3.12 µg/mL
MIC (Proteus [4]; Proteus strain 20/70, read-out: M.I.C.): > 100 µg/mL
MIC [1, 14]: > 100 µg/mL
MIC (Proteus vulgaris; [17]): 0.19 µg/mL
MIC (Proteus vulgaris; Proteus vulgaris B, 37° C overnight, read-out: M.I.C.): 1.56 µg/mL
MIC [2, 15]: > 100 µg/mL
MIC (Coliform [5]; Coliform strain 3/70): 12.5 µg/mL
MIC (Coliform [5]; Coliform strain 17/70): 0.78 µg/mL
MIC (Proteus mirabilis): 0.78 µg/mL
ED50 (E.coli III [8]; [18]): 2 mg/kg
ED50 (E.coli III [8]; [19]): > 500 mg/kg
MIC ([9]; passage 0): 0.39 µg/mL
MIC ([9]; passage 1): 6.25 µg/mL
MIC ([9]; passage 2): 25 µg/mL
MIC ([9]; passage 3): 25 µg/mL
MIC ([9]; passage 4): 25 µg/mL
MIC ([9]; passage 5): 25 µg/mL
MIC ([9]; passage 7): 25 µg/mL
MIC ([9]; passage 8): 25 µg/mL

SMILES: CC1(C)S[C@@H]2[C@H](N=CN3CCCCC3)C(=O)N2[C@H]1C(=O)O [IV, 6-[(piperidyl-1)-methyleneamino]penicillanic acid]
MIC (Coliform [12]; Coliform strain 7/70): 1.56 µg/mL
MIC (Coliform [12]; Coliform strain 16/70): 1.56 µg/mL
MIC (Coliform [12]; Coliform strain 17/70): 1.56 µg/mL
MIC (Klebsiella-Enterobacter [3]; Klebsiella-Enterobacter strain 1/70, read-out: M.I.C.): > 100 µg/mL
MIC (Klebsiella-Enterobacter [3]; [16]): 12.5 µg/mL
MIC (Klebsiella-Enterobacter [3]; Klebsiella-Enterobacter strain 5/70, read-out: M.I.C.): > 100 µg/mL
MIC (Klebsiella-Enterobacter [3]; Klebsiella-Enterobacter strain 7/70, read-out: M.I.C.): > 100 µg/mL
MIC (Klebsiella-Enterobacter [3]; Klebsiella-Enterobacter strain 9/70, read-out: M.I.C.): 3.12 µg/mL
MIC (Klebsiella-Enterobacter [3]; Klebsiella-Enterobacter strain 10/70, read-out: M.I.C.): > 100 µg/mL
MIC (Klebsiella-Enterobacter [3]; Klebsiella-Enterobacter strain 431, read-out: M.I.C.): > 100 µg/mL
MIC [13]: 6.25 µg/mL
MIC (E.coli III [7]; passage 0): 0.78 µg/mL
MIC (E.coli III [7]; passage 1): 6.25 µg/mL
MIC (E.coli III [7]; passage 2): 6.28 µg/mL
MIC (E.coli III [7]; passage 3): 25 µg/mL
MIC (E.coli III [7]; passage 4): 25 µg/mL
MIC (E.coli III [7]; passage 5): 25 µg/mL
MIC (E.coli III [7]; passage 6): 25 µg/mL
MIC (Proteus [10]; Proteus strain 4/70, read-out: M.I.C.): 25 µg/mL
MIC (Proteus [10]; [20]): 3.12 µg/mL
MIC (Proteus [10]; Proteus strain 7/70, read-out: M.I.C.): 50 µg/mL
MIC (Proteus [10]; Proteus strain 9/70, read-out: M.I.C.): 100 µg/mL
MIC (Proteus [10]; Proteus strain 10/70, read-out: M.I.C.): 25 µg/mL

SMILES: CC(=O)OCC1=C(C(=O)O)N2C(=O)[C@@H](NC(=O)Cc3cccs3)[C@H]2SC1 [VI, cephalotin]
MIC [1]: 50 µg/mL
MIC [2]: 3.12 µg/mL

SMILES: CCN(C=NC1C(=O)N2C1SC(C)(C)C2C(=O)O)CC (centres unmarked) [VII, 6-[(N,N-diethylformamidino)-N'-amino]penicillanic acid]
MIC (Proteus [6]; Proteus strain 9, read-out: MIC): 100 µg/mL
MIC (Coliforma; Coliforma strain 1): 3.12 µg/mL
MIC (Coliforma; Coliforma strain 4): 3.12 µg/mL
MIC (Coliforma; Coliforma strain 7): 6.25 µg/mL
MIC (Coliforma; Coliforma strain 16): 6.25 µg/mL
MIC (Klebsiella-Enterobacter [11]; Klebsiella-Enterobacter strain 1, read-out: MIC): > 100 µg/mL
MIC (Klebsiella-Enterobacter [11]; Klebsiella-Enterobacter strain 5, read-out: MIC): > 100 µg/mL
MIC (Klebsiella-Enterobacter [11]; Klebsiella-Enterobacter strain 7, read-out: MIC): > 100 µg/mL
MIC (Klebsiella-Enterobacter [11]; [21]): 12.5 µg/mL

SMILES: CC1(C)S[C@@H]2[C@H](NC(=O)Cc3ccccc3)C(=O)N2[C@H]1C(=O)O [benzylpenicillin]
MIC [13]: 25 µg/mL

SMILES: CC1(C)S[C@@H]2[C@H](NC(=O)C(C(=O)O)c3ccccc3)C(=O)N2[C@H]1C(=O)O (stereo partly drawn) [α-carboxybenzylpenicillin]
MIC [13]: 12.5 µg/mL
